Experimental findings from ChEMBL document CHEMBL5126538, “A score years' update in the synthesis and biological evaluation of medicinally important 2-pyridones” (Eur J Med Chem, 2022) are described below.

The test system of test [1] is Human adenovirus 7. The test can be described thus: Antiviral activity against Human adenovirus 7 infected in human HEp-2 cells assessed as reduction in viral growth incubated for 0.5 hrs followed by cell infection measured after 1 hr by crystal violet staining based assay relative to control. Format: functional. The arrangement: scale not given: the % may be the effect or the level left. To be noted: time 1.5 hrs.

The subject of test [2] is Hepatovirus A. The test can be described thus: Antiviral activity against Hepatitis A virus HM175 infected in monkey FRhK-4 cells assessed as reduction in viral growth incubated for 0.5 hrs followed by cell infection measured after 1 hr by crystal violet staining based assay relative to control. In kind it is functional. On the set-up: scale not given: the % may be the effect or the level left. As to conditions: time 1.5 hrs.

Test [3] concerns Coxsackievirus B4. Kind of test: Antiviral activity against Coxsackievirus B4 infected in African green monkey BGM cells assessed as reduction in viral growth incubated for 0.5 hrs followed by cell infection measured after 1 hr by crystal violet staining based assay relative to control. In kind it is functional. The arrangement: scale not given: the % may be the effect or the level left. To be noted: time 1.5 hrs.

Test [4] has as its system Human alphaherpesvirus 1. Kind of test: Antiviral activity against […] type 1 infected in African green monkey Vero cells assessed as reduction in viral growth incubated for 0.5 hrs followed by cell infection measured after 1 hr by crystal violet staining based assay relative to control. On the set-up: scale not given: the % may be the effect or the level left. Format: functional. As to conditions: time 1.5 hrs.

Test [5] is described as follows: Inhibition of HIV reverse transcriptase. On the set-up: species or system Human immunodeficiency virus.
The subject of test [6] is Staphylococcus aureus. The test can be described thus: Antibacterial activity against Staphylococcus aureus assessed as zone of inhibition incubated for 24 hrs by well diffusion assay. In kind it is functional.
Test [7] deals with Escherichia coli. The test can be described thus: Antibacterial activity against Escherichia coli assessed as zone of inhibition incubated for 24 hrs by well diffusion assay. Format: functional.
Test [8] has as its system Bacillus subtilis. The test can be described thus: Antibacterial activity against Bacillus subtilis assessed as zone of inhibition incubated for 24 hrs by well diffusion assay. Format: functional.
The test system of test [9] is Aspergillus niger. Kind of test: Antifungal activity against Aspergillus niger assessed as zone of inhibition incubated for 24 hrs by well diffusion assay. In kind it is functional.
The target in test [10] is Coagulation factor VII/tissue factor (Homo sapiens, UniProt P08709). The test can be described thus: Inhibition of TF/VIIA complex (unknown origin). Format: protein-complex assay.
Chain of Coagulation factor VII/tissue factor (P08709 61-212 limits assumed): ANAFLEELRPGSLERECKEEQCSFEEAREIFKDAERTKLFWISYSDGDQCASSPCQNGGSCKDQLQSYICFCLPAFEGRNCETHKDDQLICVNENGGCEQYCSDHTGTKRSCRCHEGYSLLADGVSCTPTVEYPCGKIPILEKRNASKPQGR
Chain of Coagulation factor VII/tissue factor (P08709 213-466 limits assumed): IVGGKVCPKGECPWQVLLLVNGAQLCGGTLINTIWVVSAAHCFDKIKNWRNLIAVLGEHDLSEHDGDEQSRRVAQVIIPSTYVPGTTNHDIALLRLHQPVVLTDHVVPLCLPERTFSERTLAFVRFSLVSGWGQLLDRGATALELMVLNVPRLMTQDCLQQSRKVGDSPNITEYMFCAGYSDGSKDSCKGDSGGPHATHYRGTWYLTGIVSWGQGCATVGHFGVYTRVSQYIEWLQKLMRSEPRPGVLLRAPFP
Chain of Coagulation factor VII/tissue factor (P13726 33-295 partner limits assumed): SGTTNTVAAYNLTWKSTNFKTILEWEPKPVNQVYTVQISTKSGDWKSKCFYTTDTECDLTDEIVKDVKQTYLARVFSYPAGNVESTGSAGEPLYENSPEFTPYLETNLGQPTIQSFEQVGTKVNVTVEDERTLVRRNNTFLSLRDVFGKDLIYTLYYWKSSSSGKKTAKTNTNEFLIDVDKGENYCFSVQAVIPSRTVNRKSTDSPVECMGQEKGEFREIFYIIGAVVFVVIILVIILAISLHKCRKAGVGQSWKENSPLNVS
The nature of test [11]: Inhibition of quorum sensing system in Pseudomonas aeruginosa assessed as reduction in LasI gene expression measured per well.
In test [12] the test system is HepG2. The test can be described thus: Cytotoxicity against human HepG2 cells assessed as cell growth inhibition incubated for 72 hrs by SRB assay. In kind it is functional, cell-based. To be noted: HepG2, 72 h.
Test [13] has as its target Human immunodeficiency virus type 1 reverse transcriptase (Human immunodeficiency virus 1, UniProt Q72547). The test can be described thus: Inhibition of HIV-1 reverse transcriptase using rC.dG as primer/template.
Test [14] has as its target Interleukin-6 (Homo sapiens) (UniProt P05231). The test can be described thus: Inhibition of IL-6 (unknown origin) relative to control. To be noted: concentration not given here.

Chain of Interleukin-6 (Homo sapiens) (P05231 whole entry): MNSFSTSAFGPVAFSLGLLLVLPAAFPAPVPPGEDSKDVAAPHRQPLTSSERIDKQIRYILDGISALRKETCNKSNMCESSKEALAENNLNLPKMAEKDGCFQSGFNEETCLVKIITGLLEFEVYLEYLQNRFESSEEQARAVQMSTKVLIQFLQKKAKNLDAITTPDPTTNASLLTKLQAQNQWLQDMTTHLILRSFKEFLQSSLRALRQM

With `O=c1c(-c2nc3ccccc3s2)cc2c(n1NS(=O)(=O)c1ccc(Cl)cc1)CCCC2`, the Activity entry in [1], in [2], in test [3] and in test [4] was “<=70%” in each case.

Take `CCc1cc(NCN2C(=O)c3ccccc3C2=O)c(O)nc1C`: the IC50 in test [5] was 0.058 nM.

For the compound `Cc1[nH]c(=O)c(C#N)c(-c2ccccc2Br)c1C(=O)Nc1ccccc1`, the “diameter of the inhibition zone (DIZ)” value in test [6] was 4.25 mm; in test [7], 3.75 mm; in test [8] it was 3.5 mm; in [9], 3 mm. In test [10], `CC(C)Nc1ccc(-c2cc(C(=O)O)cc([N+](=O)[O-])c2)n(CC(=O)NCc2ccc(C(=N)N)cc2)c1=O` returned an IC50 of 118 nM. Regarding `CCCc1cc(O)c(CC)c(=O)[nH]1`, in [11], the MIC was 6.35 µg.

Turning to `COC(=O)c1ccccc1-n1c(N)c(C(N)=O)c(-c2ccc(C)cc2)cc1=O`, the IC50 in test [12] came to 1340 nM. `Cc1ccc(S(=O)(=O)Nn2c3c(cc(-c4nc5ccccc5s4)c2=O)CCCC3)cc1`: the Activity result in test [1], in test [2], in test [3] and in test [4] was “<=70%” each time. As to `N#Cc1cc(-c2nc3ccccc3s2)c(=O)n(NS(=O)(=O)c2ccccc2)c1N`, the Activity entry in test [1], in test [2], in [3] and in test [4] was “<=70%” in each case. `CCc1cc(NCc2cc3ccccc3o2)c(O)nc1C`: inhibition in test [13] was half-maximal at 0.33 nM (IC50). `Cc1c(O)cc(CC(C)C)[nH]c1=O`: the MIC in test [11] stood at 6.35 µg. As to `CC[C@@H](C)c1cc(O)c(C)c(=O)[nH]1`, the MIC in test [11] was 6.35 µg. For the compound `COc1ccc(-c2c(C(=O)Nc3ccc(O)cc3)c(N)[nH]c(=O)c2C#N)cc1`, the inhibition in test [14] was 65.1%. `CCc1cc(CCN2C(=O)c3ccccc3C2=O)c(O)nc1C`: it took 6.2 nM to reach half-maximal inhibition in test [5] (IC50). Consider `CCc1c(O)cc(C(C)C)[nH]c1=O`, for which, in test [11], the MIC turned out to be 6.35 µg.

Regarding `COC(=O)c1ccccc1-n1c(N)c(C#N)c(-c2ccc(N(C)C)cc2)cc1=O`, the IC50 in test [12] is 2410 nM.

In the case of `CC(C)Nc1ccc(-c2cc(N)cc([N+](=O)[O-])c2)n(CC(=O)NCc2ccc(C(=N)N)cc2)c1=O`, half-maximal inhibition in test [10] (IC50) was put at 52 nM.
